Reference: patent US20240101576A1, “HETEROCYCLIC INHIBITORS OF EGFR AND/OR HER2, FOR USE IN THE TREATMENT OF CANCER” (Scorpion Therapeutics, Inc., priority 2020, published 2024)

Key:
Type in all cases: cell-based
[1] = molecular target: T1, EGFR exon 20 NPG Ins D770_N771 (Ba/F3 cells) (Homo sapiens, UniProt P00533, INS770NPG); assay: Inhibitor activity on EGFR-dependent cell growth (CellTiter-Glo, 72 h), Ba/F3 EGFR exon 20 NPG Ins; conditions: read-out: BaF3 NPG IC50
T1 construct: expressed in transfected cells; host or cells: Ba/F3 (murine pro-B cells), retroviral transduction, puromycin selection, IL3-independent pool
T1 sequence (P00533 with tags, fused parts or gaps INS770NPG): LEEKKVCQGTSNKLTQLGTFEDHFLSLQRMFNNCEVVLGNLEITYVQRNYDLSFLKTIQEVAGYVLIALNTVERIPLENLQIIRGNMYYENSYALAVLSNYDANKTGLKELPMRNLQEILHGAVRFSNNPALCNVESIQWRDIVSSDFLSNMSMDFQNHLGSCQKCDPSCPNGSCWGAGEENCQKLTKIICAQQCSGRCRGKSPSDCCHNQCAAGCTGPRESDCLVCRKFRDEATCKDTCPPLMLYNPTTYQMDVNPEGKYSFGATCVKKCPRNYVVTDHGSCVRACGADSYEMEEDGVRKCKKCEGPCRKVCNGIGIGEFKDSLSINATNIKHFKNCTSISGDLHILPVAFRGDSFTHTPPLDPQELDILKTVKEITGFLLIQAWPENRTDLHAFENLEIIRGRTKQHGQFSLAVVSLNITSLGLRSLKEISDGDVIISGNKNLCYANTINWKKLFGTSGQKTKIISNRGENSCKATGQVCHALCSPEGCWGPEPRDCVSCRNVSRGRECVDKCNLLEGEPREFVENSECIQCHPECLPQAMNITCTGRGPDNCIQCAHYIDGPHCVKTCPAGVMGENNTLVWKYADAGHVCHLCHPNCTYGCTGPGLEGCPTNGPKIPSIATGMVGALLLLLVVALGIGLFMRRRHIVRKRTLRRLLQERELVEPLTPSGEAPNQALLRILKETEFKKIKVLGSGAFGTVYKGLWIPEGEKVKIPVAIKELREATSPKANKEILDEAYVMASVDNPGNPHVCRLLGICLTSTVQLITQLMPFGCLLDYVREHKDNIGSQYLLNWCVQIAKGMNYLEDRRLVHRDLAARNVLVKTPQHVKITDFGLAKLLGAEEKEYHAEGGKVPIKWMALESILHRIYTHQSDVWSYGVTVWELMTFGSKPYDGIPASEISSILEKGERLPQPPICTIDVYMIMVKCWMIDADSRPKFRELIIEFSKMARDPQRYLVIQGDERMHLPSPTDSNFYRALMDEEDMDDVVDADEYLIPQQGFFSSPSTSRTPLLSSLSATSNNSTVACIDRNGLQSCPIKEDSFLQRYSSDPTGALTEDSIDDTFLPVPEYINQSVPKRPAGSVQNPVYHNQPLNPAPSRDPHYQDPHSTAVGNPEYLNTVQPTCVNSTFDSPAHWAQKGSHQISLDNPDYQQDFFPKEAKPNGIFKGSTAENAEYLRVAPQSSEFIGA
Procedure, shortened: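 IC50s derive from a sigmoidal dose–response fit of CellTiter-Glo signal. The signal was normalised between […]-treated cells and cell-free medium. Ba/F3 mutant-EGFR cells, seeded at 400–800/well depending on the line, had 72 h of exposure to a 10-point, 3-fold compound series.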

[2] = molecular target: T2, EGFR L858R/C797S (Ba/F3 cells) (Homo sapiens, UniProt P00533, C797S/L858R); assay: Inhibitor activity on EGFR phosphorylation (pEGFR AlphaLISA, 2 h), Ba/F3 EGFR L858R/C797S
T2 construct: expressed in transfected cells; host or cells: Ba/F3 (murine pro-B cells), retroviral transduction, puromycin selection, IL3-independent pool
Procedure, shortened: (§1)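 IL3-independent Ba/F3 cells transduced with mutant EGFR (50K/well) or CUTO14 cells (12.5K/well) were treated 2 h with 10-point, 3-fold compound dilutions. Phospho-EGFR in lysates was measured by AlphaLISA to derive IC50.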

[3] = molecular target: T3, EGFR exon 19del (Ba/F3 cells) (Homo sapiens, UniProt P00533); assay: Inhibitor activity on EGFR phosphorylation (pEGFR AlphaLISA, 2 h), Ba/F3 EGFR exon 19del; conditions: read-out: Del19 IC50 (pEGFR)
Procedure, shortened: as §1

EGFR (CUTO14 cells) = EGFR (CUTO14 cells) (Homo sapiens, UniProt P00533); assay: Inhibitor activity on EGFR phosphorylation (pEGFR AlphaLISA, 2 h), CUTO14 cells
Procedure, shortened: as §1

[4] = molecular target: T4, EGFR exon 20 SVD Ins D770_N771 (Ba/F3 cells) (Homo sapiens, UniProt P00533, INS770SVD); assay: Inhibitor activity on EGFR phosphorylation (pEGFR AlphaLISA, 2 h), Ba/F3 EGFR exon 20 SVD Ins
T4 construct: expressed in transfected cells; host or cells: Ba/F3 (murine pro-B cells), retroviral transduction, puromycin selection, IL3-independent pool
Description: Example B. Inhibitor Activity on EGFR phosphorylation (pEGFR)
EGFR mutant Ba/F3 cells were generated by transduction with retrovirus containing vectors expressing EGFR L858R, EGFR exon 19del, EGFR L858R/C797S, EGFR exon 20 NPG Ins D770_N771, EGFR exon 20 ASV Ins V769_D770, or EGFR exon 20 SVD Ins D770_N771 genes along with a puromycin selection marker. Transduced cells are selected with puromycin for 7 days and are then be transferred into culture media without Interleukin 3 (IL3). Surviving cells are confirmed to express EGFR by Western blot and maintained as a pool. CUTO14 cells were obtained from Dr. Robert C. Doebele at the University of Colorado. The IC50 date are included in Table 6 and Table 7.
1.1 Cells are harvested from flask into cell culture medium and the cell number counted.
1.2 Cells are diluted with culture medium to the desired density and 40 μL of cell suspension is added into each well of 384-well cell culture plate and the seeding density is 50K cells/well (Ba/F3) or 12.5K cells/well (CUTO14).
2 Compound Preparation and Treatment
2.1 Test compounds are dissolved to 10 mM in a DMSO stock solution. 45 μL of stock solution is transferred to a 384 polypropylene plate (pp-plate). Perform 3-fold, 10-point dilution via transferring 15 μL compound into 30 μL DMSO using a TECAN (EVO200) liquid handler.
2.2 Spin plates at room temperature at 1,000 RPM for 1 minute.
2.3 Transfer 5 nL of diluted compound from compound source plate into the cell plate.
2.4 After compound treatment for 2 hours, perform pEGFR detection by AlphaLISA for compound treatment plates as described in “Detection” section.
3 Detection by pEGFR AlphaLISA (Perkin-Elmer)
3.1 Plates are removed from incubators and equilibrated at room temperature for 10 minutes, and media was removed
3.2 10 μL of lysis buffer is added and plates shaken at 600 rpm for 1 hr.
3.3 Prepare acceptor mix just before use and dispense 5 μL of acceptor mix to all the wells. Shake 350 rpm for Ihr in the dark
3.4 Prepare donor mix under low light conditions prior to use. Dispense 5 μL of donor mix to all the wells. Mix well on the shaker, seal and wrap in aluminum foil and incubate 1.5 hrs at room temperature in the dark
3.5 Transfer 18.5 μL mixture to OptiPlate 384, and read using an Envision. The IC50 date were included in Table 6 and Table 7.

[5] = molecular target: T2, EGFR L858R/C797S (Ba/F3 cells); assay: Inhibitor activity on EGFR-dependent cell growth (CellTiter-Glo, 72 h), Ba/F3 EGFR L858R/C797S; conditions: read-out: BaF3 L858R/C797S IC50
Procedure, shortened: (§2)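 Ba/F3, retrovirally transduced, puromycin-selected, grown without IL3; cells/well: L858R 400, L858R/C797S 600, exon 19del 800, FQEA 800. Cpds from 10 mM DMSO stock, 3-fold ×10 dilution, 120 nL per well; 72 h. CTG readout; IC50 via Hill equation.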

EGFR WT (Ba/F3 cells) = molecular target: T5, EGFR WT (Ba/F3 cells) (Homo sapiens, UniProt P00533); assay: Inhibitor activity on EGFR-dependent cell growth (CellTiter-Glo, 72 h), Ba/F3 EGFR WT; conditions: read-out: BaF3 WT IC50
T5 construct: expressed in transfected cells; host or cells: Ba/F3 (murine pro-B cells), retroviral transduction, puromycin selection, maintained with EGF
Procedure, shortened: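 This growth assay used Ba/F3 cells that depend on wild-type EGFR and are kept in EGF without IL3. Compounds were made up as 10 mM DMSO stocks and diluted 3-fold over 10 points. 120 nL went onto 600 cells/well. After 72 hours, 40 μL CellTiter-Glo was added and luminescence read on EnVision after 30 min.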

[6] = molecular target: T1, EGFR exon 20 NPG Ins D770_N771 (Ba/F3 cells); assay: Inhibitor activity on EGFR phosphorylation (pEGFR AlphaLISA, 2 h), Ba/F3 EGFR exon 20 NPG Ins
Procedure, shortened: as §1

[7] = molecular target: T3, EGFR exon 19del (Ba/F3 cells); assay: Inhibitor activity on EGFR-dependent cell growth (CellTiter-Glo, 72 h), Ba/F3 EGFR exon 19del; conditions: Ba/F3 EGFR exon 19del cell growth, read-out: BaF3 Del19 IC50
Procedure, shortened: as §2

[8] = molecular target: T6, EGFR exon 20 ASV Ins V769_D770 (Ba/F3 cells) (Homo sapiens, UniProt P00533, INS769ASV); assay: Inhibitor activity on EGFR phosphorylation (pEGFR AlphaLISA, 2 h), Ba/F3 EGFR exon 20 ASV Ins; conditions: EGFR phosphorylation, AlphaLISA, 2 hours; read-out: ASV IC50 (pEGFR)
T6 construct: expressed in transfected cells; host or cells: Ba/F3 (murine pro-B cells), retroviral transduction, puromycin selection, IL3-independent pool
T6 sequence (P00533 with tags, fused parts or gaps INS769ASV): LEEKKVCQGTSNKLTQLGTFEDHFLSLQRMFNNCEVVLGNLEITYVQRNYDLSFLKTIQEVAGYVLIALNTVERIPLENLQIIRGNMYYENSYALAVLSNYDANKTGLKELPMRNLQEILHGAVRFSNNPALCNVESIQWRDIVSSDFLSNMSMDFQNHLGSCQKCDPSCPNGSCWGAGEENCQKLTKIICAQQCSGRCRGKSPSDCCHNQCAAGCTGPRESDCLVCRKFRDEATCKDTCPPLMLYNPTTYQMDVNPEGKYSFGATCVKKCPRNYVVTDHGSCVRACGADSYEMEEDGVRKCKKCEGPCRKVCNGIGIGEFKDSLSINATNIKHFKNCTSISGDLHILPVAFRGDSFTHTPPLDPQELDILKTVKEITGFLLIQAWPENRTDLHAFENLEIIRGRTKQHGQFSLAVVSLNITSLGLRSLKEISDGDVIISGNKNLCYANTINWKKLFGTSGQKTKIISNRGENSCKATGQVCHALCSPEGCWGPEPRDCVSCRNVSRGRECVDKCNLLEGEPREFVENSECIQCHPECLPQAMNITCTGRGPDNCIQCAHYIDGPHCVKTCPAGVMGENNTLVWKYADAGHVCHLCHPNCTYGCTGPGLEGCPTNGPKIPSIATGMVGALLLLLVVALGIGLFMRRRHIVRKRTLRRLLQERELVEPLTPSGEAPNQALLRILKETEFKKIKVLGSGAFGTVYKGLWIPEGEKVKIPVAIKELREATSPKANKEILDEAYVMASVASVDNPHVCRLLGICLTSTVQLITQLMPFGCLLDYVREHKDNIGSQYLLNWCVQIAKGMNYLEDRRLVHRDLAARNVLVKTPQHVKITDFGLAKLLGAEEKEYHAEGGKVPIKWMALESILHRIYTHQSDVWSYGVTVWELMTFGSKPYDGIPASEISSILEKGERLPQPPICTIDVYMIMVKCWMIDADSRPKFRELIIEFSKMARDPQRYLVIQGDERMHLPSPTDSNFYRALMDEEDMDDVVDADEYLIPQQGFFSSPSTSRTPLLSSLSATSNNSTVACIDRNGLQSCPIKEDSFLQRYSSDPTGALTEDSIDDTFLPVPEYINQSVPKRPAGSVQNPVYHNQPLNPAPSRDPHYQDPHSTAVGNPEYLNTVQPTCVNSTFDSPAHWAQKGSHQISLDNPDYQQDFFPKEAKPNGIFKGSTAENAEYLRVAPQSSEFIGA
Procedure, shortened: as §1

EGFR L858R (Ba/F3 cells) [9] = molecular target: T7, EGFR L858R (Ba/F3 cells) (Homo sapiens, UniProt P00533, L858R); assay: Inhibitor activity on EGFR-dependent cell growth (CellTiter-Glo, 72 h), Ba/F3 EGFR L858R; conditions: read-out: BaF3 L858R IC50
T7 construct: expressed in transfected cells; host or cells: Ba/F3 (murine pro-B cells), retroviral transduction, puromycin selection, IL3-independent pool
T7 sequence (P00533 25-1210 L858R): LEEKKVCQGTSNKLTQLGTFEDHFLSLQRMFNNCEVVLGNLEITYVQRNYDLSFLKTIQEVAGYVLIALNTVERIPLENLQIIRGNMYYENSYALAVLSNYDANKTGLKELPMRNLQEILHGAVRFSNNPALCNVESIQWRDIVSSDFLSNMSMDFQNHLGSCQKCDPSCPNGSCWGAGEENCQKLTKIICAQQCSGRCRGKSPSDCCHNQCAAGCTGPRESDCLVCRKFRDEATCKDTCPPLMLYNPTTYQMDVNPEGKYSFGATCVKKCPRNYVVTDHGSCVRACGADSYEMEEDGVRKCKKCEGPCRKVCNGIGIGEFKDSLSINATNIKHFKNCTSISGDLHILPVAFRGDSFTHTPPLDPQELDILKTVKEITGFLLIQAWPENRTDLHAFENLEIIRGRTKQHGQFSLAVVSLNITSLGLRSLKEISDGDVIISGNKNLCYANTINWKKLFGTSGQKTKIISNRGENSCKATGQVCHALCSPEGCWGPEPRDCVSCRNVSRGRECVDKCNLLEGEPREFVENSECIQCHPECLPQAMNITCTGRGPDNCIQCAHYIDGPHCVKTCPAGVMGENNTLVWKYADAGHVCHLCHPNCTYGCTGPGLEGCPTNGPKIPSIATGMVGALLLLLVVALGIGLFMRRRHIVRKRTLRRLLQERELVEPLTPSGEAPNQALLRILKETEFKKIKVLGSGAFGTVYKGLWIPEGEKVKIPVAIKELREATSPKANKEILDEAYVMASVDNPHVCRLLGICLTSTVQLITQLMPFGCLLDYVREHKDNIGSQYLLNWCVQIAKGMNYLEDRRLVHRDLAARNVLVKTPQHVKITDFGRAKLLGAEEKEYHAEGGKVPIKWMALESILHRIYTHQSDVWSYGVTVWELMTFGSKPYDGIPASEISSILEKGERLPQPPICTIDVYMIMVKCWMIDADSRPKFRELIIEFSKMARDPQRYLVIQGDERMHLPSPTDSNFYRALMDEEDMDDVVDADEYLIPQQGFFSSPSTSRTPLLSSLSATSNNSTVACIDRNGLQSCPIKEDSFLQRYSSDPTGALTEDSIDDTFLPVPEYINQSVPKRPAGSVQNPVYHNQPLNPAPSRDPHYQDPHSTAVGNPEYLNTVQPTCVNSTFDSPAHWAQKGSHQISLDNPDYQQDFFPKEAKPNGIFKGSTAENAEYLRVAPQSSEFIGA
Procedure, shortened: as §2

[10] = molecular target: T8, EGFR exon 20 FQEA Ins A763_V764 (Ba/F3 cells) (Homo sapiens, UniProt P00533, INS763FQEA); assay: Inhibitor activity on EGFR-dependent cell growth (CellTiter-Glo, 72 h), Ba/F3 EGFR exon 20 FQEA Ins; conditions: read-out: BaF3 FQEA IC50
T8 construct: expressed in transfected cells; host or cells: Ba/F3 (murine pro-B cells), retroviral transduction, puromycin selection, IL3-independent pool
T8 sequence (P00533 with tags, fused parts or gaps INS763FQEA): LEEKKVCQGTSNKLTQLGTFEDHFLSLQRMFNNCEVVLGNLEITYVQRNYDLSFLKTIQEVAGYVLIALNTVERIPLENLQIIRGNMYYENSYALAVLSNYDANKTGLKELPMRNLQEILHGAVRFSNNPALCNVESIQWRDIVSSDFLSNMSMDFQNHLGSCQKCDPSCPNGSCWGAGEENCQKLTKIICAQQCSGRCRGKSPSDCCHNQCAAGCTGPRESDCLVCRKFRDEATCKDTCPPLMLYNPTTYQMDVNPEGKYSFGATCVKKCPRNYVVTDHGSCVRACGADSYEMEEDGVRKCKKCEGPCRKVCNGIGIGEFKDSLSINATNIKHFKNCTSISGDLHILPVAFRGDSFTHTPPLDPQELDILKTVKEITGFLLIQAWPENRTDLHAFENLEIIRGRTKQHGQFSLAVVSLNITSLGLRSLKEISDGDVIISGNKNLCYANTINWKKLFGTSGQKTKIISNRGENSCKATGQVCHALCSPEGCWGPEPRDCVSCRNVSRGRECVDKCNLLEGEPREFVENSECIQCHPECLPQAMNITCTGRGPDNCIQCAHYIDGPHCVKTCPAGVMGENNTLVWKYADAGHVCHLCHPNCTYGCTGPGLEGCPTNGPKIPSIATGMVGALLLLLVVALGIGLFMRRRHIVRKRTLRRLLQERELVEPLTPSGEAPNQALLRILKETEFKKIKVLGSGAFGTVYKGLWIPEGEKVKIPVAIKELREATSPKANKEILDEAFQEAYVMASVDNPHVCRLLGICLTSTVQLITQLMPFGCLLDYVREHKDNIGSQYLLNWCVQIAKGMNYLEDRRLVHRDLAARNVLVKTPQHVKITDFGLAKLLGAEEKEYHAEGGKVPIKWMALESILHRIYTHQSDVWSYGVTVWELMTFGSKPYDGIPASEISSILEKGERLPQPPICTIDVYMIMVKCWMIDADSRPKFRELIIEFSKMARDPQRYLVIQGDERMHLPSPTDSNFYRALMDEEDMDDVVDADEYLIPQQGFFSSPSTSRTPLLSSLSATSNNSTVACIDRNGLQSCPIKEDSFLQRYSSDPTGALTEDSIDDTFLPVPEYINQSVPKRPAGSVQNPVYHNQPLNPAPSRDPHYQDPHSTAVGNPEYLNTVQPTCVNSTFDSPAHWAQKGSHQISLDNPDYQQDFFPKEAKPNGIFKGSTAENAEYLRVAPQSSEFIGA
Procedure, shortened: as §2

EGFR L858R (Ba/F3 cells) [11] = molecular target: T7, EGFR L858R (Ba/F3 cells); assay: Inhibitor activity on EGFR phosphorylation (pEGFR AlphaLISA, 2 h), Ba/F3 EGFR L858R
Procedure, shortened: as §1

SMILES	IC50 [1]	IC50 [2]	IC50 [3]	IC50 (EGFR (CUTO14 cells))	IC50 [4]	IC50 [5]	IC50 (EGFR WT (Ba/F3 cells))	IC50 [6]	IC50 [7]	IC50 [8]	IC50 (EGFR L858R (Ba/F3 cells) [9])	IC50 [10]	IC50 (EGFR L858R (Ba/F3 cells) [11])
COc1c(Cl)cccc1Nc1c(-c2ccnc(C)n2)[nH]c2c1C(=O)NC[C@@H]2CC1COCCO1 (stereo in doubt) [Compound 551, (7S)-3-[(3-chloro-2-methoxyphenyl)amino]-7-[(2R)-1,4-dioxan-2-ylmethyl]-2-(2-methylpyrimidin-4-yl)-1H,5H,6H,7H-pyrrolo[3,2-c]pyridin-4-one]	< 100 nM	< 100 nM	< 100 nM	< 100 nM	< 100 nM	< 100 nM	100 to 1000 nM	< 100 nM	< 100 nM	< 100 nM	< 100 nM	100 to 1000 nM	< 100 nM
COCC[C@H]1CNC(=O)c2c1[nH]c(-c1ccncc1F)c2Nc1cccc(Cl)c1OC [Compound 747]	< 100 nM	< 100 nM	< 100 nM	< 100 nM	< 100 nM	< 100 nM	< 100 nM	< 100 nM	< 100 nM	< 100 nM	< 100 nM	< 100 nM	< 100 nM

Next, values leading:

IC50 [1]	IC50 [2]	IC50 [3]	IC50 (EGFR (CUTO14 cells))	IC50 [4]	IC50 [5]	IC50 (EGFR WT (Ba/F3 cells))	IC50 [6]	IC50 [7]	IC50 [8]	IC50 (EGFR L858R (Ba/F3 cells) [9])	IC50 [10]	IC50 (EGFR L858R (Ba/F3 cells) [11])	SMILES
< 100 nM	< 100 nM	< 100 nM	< 100 nM	< 100 nM	< 100 nM	< 100 nM	< 100 nM	< 100 nM	< 100 nM	< 100 nM	< 100 nM	< 100 nM	COc1c(Cl)cccc1Nc1c(-c2ccncc2F)[nH]c2c1C(=O)NC[C@@H]2C[C@@H]1COCCO1 [Compound 482, (S)-7-(((R)-1,4-dioxan-2-yl)methyl)-3-((3-chloro-2-methoxyphenyl)amino)-2-(3-fluoropyridin-4-yl)-1,5,6,7-tetrahydro-4H-pyrrolo[3,2-c]pyridin-4-one]
< 100 nM	< 100 nM	< 100 nM	< 100 nM	< 100 nM	< 100 nM	100 to 1000 nM	< 100 nM	< 100 nM	< 100 nM	< 100 nM	< 100 nM	< 100 nM	COc1c(Cl)cccc1Nc1c(-c2ccncc2F)[nH]c2c1C(=O)NC[C@@H]2C[C@H]1COCCO1 [Compound 481, (7S)-3-[(3-chloro-2-methoxyphenyl)amino]-7-[(2S)-1,4-dioxan-2-ylmethyl]-2-(3-fluoropyridin-4-yl)-1H,5H,6H,7H-pyrrolo[3,2-c]pyridin-4-one]
< 100 nM	< 100 nM	< 100 nM	< 100 nM	< 100 nM	< 100 nM	100 to 1000 nM	< 100 nM	< 100 nM	< 100 nM	< 100 nM	< 100 nM	< 100 nM	COc1c(Cl)cccc1Nc1c(-c2ccnc3ccoc23)[nH]c2c1C(=O)NCC2 [compound 750, 3-[(3-chloro-2-methoxyphenyl)amino]-2-[furo[3,2-b]pyridin-7-yl]-1H,5H,6H,7H-pyrrolo[3,2-c]pyridin-4-one]
